Assay results as given in patent publication US20220017468A1, “ISOQUINOLINE COMPOUNDS AND THEIR USE IN TREATING AhR IMBALANCE” (Dermavant Sciences GmbH, priority 2020, published 2022).
Several values for one entry are separate records, joined by “and”; a condition that tells them apart may be missing. Equal entries are not always repeated. Entries after “also recorded” stand apart in the source; their conditions may differ. Where two headings read alike, the source gives them in different places.

Columns and labels:
Human Plasma Proteins = test: plasma protein binding by Rapid Equilibrium Dialysis, human; assay type: in vitro ADME
Text: (§1) The blood-to-plasma ratios were similar across species (1.22-1.36, Table 9).

[1] = as above; assay type: in vitro ADME; conditions: human, plasma
Text: as §1

[2] = metabolic stability in hepatocytes, rat; assay type: in vitro ADME
[3] = metabolic stability in hepatocytes, human; assay type: in vitro ADME
[4] = pharmacokinetics after a single intravenous dose, rat; assay type: in vivo; conditions: plasma, 1 mg/kg intravenous
Text: Bioavailability was 46.5% and 41.0% for 30% Captisol and 30% Cavitron, respectively. 30% Captisol formulation was selected for the 7-day subcutaneous toxicity study in rat.

Nrf2 = test: luciferase-based reporter assay for NQO1 gene expression; assay type: cell-based
[5] = metabolic stability in liver microsomes, human; assay type: in vitro ADME
[6] = test system: imiquimod (IMQ)-treated mouse; test: IMQ mouse model of psoriasis; assay type: in vivo; conditions: for IL-17% effect vs. IMQ + SEM / IL-17F %effect vs IMQ + SEM: tissue mRNA
Procedure: Female BALB/c mice (BALB/cByJRj) were purchased from Janvier (France). Mice are allowed to eat a normal diet AO4C from SAFE (France) and drink ad libitum. BALB/c JByRj female mice (8 week-old at study initiation) are treated with imiquimod (IMQ) cream (5%) or vanicream (non-inflammatory inert cream). For three days of pre-treatment, and then daily until the end of the study (two hours before each application of IMQ), the same skin area is treated topically with 100 μL of compound. Mice are monitored for changes in clinical symptoms over the course of the study. Affected back skin is examined by histology and qPCR for evidence of compound efficacy.
Starting 3 days after first treatment, IMQ cream was applied daily for 4 (StudyA) or 10 days (Study B). Clinical scoring was monitored daily (FIG. 5A, FIG. 5B). At the end of the study, treated skin was evaluated by histology and qPCR for induced cytokine gene expression.
On days 0, 1, 2, 3: visual evaluation of the skin and psoriasis clinical scorewere noted.
Psoriasis reactions (erythema and plaques) are reported according to a 0-4 scale in ascending order of severity as shown below and results are shown in FIG. 5A1.
On the last day of treatment, a 6 mm punch of skin in the treated area is collected on a aluminium sheet (to keep the skin flattened) and placed into a tube containing Formalin solution (Neutral Buffered 10% (SIGMA HT501320-9 5L)) for histological analysis (FIG. 5A2).
On days 0, 1, 2, 3, 4, 5, 6, 7,8, 9: visual evaluation of the skin and psoriasis clinical score were noted.
Psoriasis reactions (erythema and plaques) are reported according to a 0-4 scale in ascending order of severity as shown below and results are shown in FIG. 5B1.
On the last day of treatment, a 6 mm punch of skin in the treated area is collected on a aluminium sheet (to keep the skin flattened) and placed into a tube containing Formalin solution (Neutral Buffered 10% (SIGMA HT501320-9 5L)) for histological analysis (FIG. 5B2).

[7] = test system: primary human cell culture platforms; test: BioMAP Diversity Plus profiling; assay type: cell-based
[8] = metabolic stability in hepatocytes, rabbit; assay type: in vitro ADME
CB2 = molecular target: T1, CB2 (Homo sapiens, UniProt P34972); test: fluorescence-based agonist assay using genetically modified yeast; assay type: cell-based; conditions: read-out: CB2 pEC50 (converted)
T1 construct: expressed in transfected cells

[9] = metabolic stability in liver microsomes, dog; assay type: in vitro ADME
[10] = metabolic stability in liver microsomes, mouse; assay type: in vitro ADME

T1 sequence (P34972 whole entry, species assumed): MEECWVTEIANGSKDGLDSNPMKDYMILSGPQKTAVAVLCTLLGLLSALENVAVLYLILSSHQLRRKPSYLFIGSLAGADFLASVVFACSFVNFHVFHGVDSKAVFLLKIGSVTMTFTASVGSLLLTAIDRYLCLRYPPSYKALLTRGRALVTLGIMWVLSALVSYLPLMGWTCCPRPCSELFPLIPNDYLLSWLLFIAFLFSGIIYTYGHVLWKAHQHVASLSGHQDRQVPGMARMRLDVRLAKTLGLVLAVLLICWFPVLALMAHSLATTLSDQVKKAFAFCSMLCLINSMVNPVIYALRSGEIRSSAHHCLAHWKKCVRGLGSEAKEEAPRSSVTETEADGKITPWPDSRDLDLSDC

In the case of `CC(C)c1c(O)cc(-c2cc3ccccc3cn2)cc1O`, the recovery at 2 μM (Human Plasma Proteins) is reported as 102%, the “% Unbound Replicate” value (Human Plasma Proteins; 2 μM) is reported as 1.05% and 1.13% and the “Mean % Stability at 4 hrs” value (Human Plasma Proteins; 2 μM) is reported as 101%. The fraction unbound at 2 μM ([1]; read-out: % Unbound Mean (% CV)) was 0.0108, the fraction unbound at 2 μM ([1]; read-out: % Unbound Replicate) was 0.0106 and the fraction unbound at 2 μM ([1]; read-out: Mean % Bound (converted)) was 0.011. The “in vitro-to-in vivo extrapolation (IVIVE) ratio” value ([2]; rat) was 0.45, the “CLint, hep” value ([2]; rat hepatocytes, 0.5 μM) was 44.4 mL/min/g liver and the half-life at 0.5 μM ([2]; rat hepatocytes, 0.5 μM) was 3.37 min. For the same compound, the CLint scaled at 0.5 μM ([2]; rat hepatocytes, 0.5 μM, read-out: Scaled CLint, hep) was 1600 mL/min/kg, the half-life at 0.5 μM [3] was 10.4 min and the “CLint, hep” value ([3]; 0.5 μM) was 15.7 mL/min/g liver. For the same compound, the CLint scaled at 0.5 μM ([3]; read-out: Scaled CLint, hep) was 384 mL/min/kg, the AUC(0-inf) ([4]; mean n = 3) was 95.7 ng·h/mL and the half-life ([4]; mean n = 3) was 41.4 min. For the same compound, the clearance ([4]; mean n = 3, read-out: CLp) was 175 mL/min/kg, the Vd ([4]; mean n = 3, read-out: Vss) was 6 L/kg and the “Nrf2 pEC50” value (Nrf2) was “pEC50 = 7.0”. The “CLint, mic” value ([5]; human liver microsomes, 0.5 μM) was 1.35 mL/min/g liver, the CLint scaled at 0.5 μM ([5]; human liver microsomes, 0.5 μM, read-out: Scaled CLint, mic) was 33.1 mL/min/kg and the half-life at 0.5 μM ([5]; human, microsomes) was 40.9 min. The “IL-17% effect vs. IMQ + SEM” value ([6]; Study A, 0.3% + IMQ) was 16.27 + 4.816%, the “IL-17F %effect vs IMQ + SEM” value ([6]; Study A, 0.3% + IMQ) was 22.21 + 7.418% and the “IL-17% effect vs. IMQ + SEM” value ([6]; Study B, 0.1% + IMQ) was 78.48 + 18.771%. The “IL-17F %effect vs IMQ + SEM” value ([6]; Study B, 0.1% + IMQ) was 45.23 + 9.519%, the “IL-17% effect vs. IMQ + SEM” value ([6]; Study B, 0.3% + IMQ) was 79.33 + 22.900% and the “IL-17F %effect vs IMQ + SEM” value ([6]; Study B, 0.3% + IMQ) was 60.01 + 12.229%. For the same compound, the clinical score ([6]; daily topical, 60% EtOH: 40% H2O solution, vs vehicle-treated mice) was “reduced clinical score”, the “skin cytokine gene expression (IL-17A, IL-17F)” value ([6]; topical, qPCR) was “significantly inhibited; also recorded: reduced cytokine gene expression” and the “epidermis thickening induced by imiquimod” value ([6]; topical, skin histology) was “reduce the epidermis thickening; also recorded: reduced epidermal thickening”. The “effect on B cell proliferation” value ([7]; 1 μM, 330 nM, 110 nM and 37 nM) was “anti-proliferative to B cells”, the increased biomarkers ([7]; 1 μM, 330 nM, 110 nM and 37 nM) was “increased IL8, IL1α, sPGE2, ICAM-1, and E-selectin” and the “reduced biomarkers (M-CSF, sIL-17A, sIL-2, sIL-6, sIL-10, Eot3, sTNFα, MCP-1, VCAM-1, MIP-1)” value ([7]; 1 μM, 330 nM, 110 nM and 37 nM) was “reductions in various cytokines/chemokines”. For the same compound, the “sIL-17 in BioMAP” value ([7]; profiles overlaid) was “observed reduction in sIL-17”, the half-life at 0.5 μM [8] was 21.3 min and the “CLint, hep” value ([8]; 0.5 μM) was 7.80 mL/min/g liver. The CLint scaled at 0.5 μM ([8]; read-out: Scaled CLint, hep) was 240 mL/min/kg, the EC50 (CB2) was 200 nM and the “CLint, mic” value ([9]; dog liver microsomes, 0.5 μM) was 1.59 mL/min/g liver. The CLint scaled at 0.5 μM ([9]; dog liver microsomes, 0.5 μM, read-out: Scaled CLint, mic) was 51.7 mL/min/kg, the half-life at 0.5 μM ([9]; dog, microsomes) was 32.1 min and the “CLint, mic” value ([10]; mouse liver microsomes, 0.5 μM) was 23.4 mL/min/g liver. For the same compound, the CLint scaled at 0.5 μM ([10]; mouse liver microsomes, 0.5 μM, read-out: Scaled CLint, mic) was 1190 mL/min/kg and the half-life at 0.5 μM ([10]; mouse, microsomes) was 2.84 min.
